These are literature values, as cited in patent publication US20160018671A1, “DRUG DELIVERY FROM CONTACT LENSES WITH A FLUIDIC MODULE” (ONEFOCUS TECHNOLOGY, LLC, priority 2013, published 2016).

The conditions of the data set: contact lenses passively impregnated with the drug; for IOP reductions: compared with conventional therapy.

Counter-ions that a name gives are not always drawn.

In the case of `CC(C)(C)NC[C@H](O)COc1nsnc1N1CCOCC1` [timolol maleate], the toxicity entry is given as “no toxicity” and the IOP reductions result was “equivalent to conventional therapy”.
Take brimonidine tartrate: the toxicity entry is recorded as “no toxicity” and the IOP reductions result is “equivalent to conventional therapy”.
